Measured values: patent US11590116B2 (THERAVANCE BIOPHARMA R&D IP, LLC, priority 2019, dated 2023)

Experiments:
[1] = tested on: TGF-β-stimulated SMAD3 phosphorylation in BEAS-2B cells; assay: Cellular ALK5 potency assay, inhibition of TGF-β stimulated pSMAD3 formation in BEAS-2B cells; format: cell-based; settings: Homo sapiens; inhibition of TGF-β stimulated pSMAD3 formation, BEAS-2B cells; read-out: BEAS2B pIC50 (converted)
Procedure, shortened: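 Potency is reported as pIC50, derived from concentration-dependent reduction of pSMAD3 AlphaLISA signal against TGF-β-stimulated cells without compound. BEAS-2B cells received compound for 1 h before a 30-min stimulation with 10 ng/mL TGF-β.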

[2] = target: T1, recombinant human ALK5 (TGF-βR1) protein (Homo sapiens, UniProt P36897); assay: Biochemical ALK5 (TGF-βR1) assay to measure pKi (LANCE Ultra ULight kinase assay); settings: apparent pKi from pIC50 by Cheng-Prusoff, read-out: ALK5 pKi (converted)
T1 construct: purchased Life Technologies PR9075A
T1 sequence (P36897 34-503): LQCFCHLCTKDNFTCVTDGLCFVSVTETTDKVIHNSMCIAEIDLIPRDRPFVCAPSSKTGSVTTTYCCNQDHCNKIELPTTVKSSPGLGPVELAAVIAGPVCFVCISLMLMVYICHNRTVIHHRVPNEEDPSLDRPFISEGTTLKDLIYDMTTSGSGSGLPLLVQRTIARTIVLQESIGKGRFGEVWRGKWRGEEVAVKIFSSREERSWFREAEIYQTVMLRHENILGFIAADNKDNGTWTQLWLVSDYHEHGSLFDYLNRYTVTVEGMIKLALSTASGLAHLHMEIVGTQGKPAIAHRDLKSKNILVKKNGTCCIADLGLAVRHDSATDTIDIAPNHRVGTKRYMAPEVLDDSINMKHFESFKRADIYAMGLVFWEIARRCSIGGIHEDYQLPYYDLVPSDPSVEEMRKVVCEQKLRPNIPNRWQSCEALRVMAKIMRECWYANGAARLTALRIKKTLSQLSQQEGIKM
Procedure, shortened: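 Dose range 10 μM–25 pM; enzyme + compound 60 min RT; ATP added (5× stock 125 μM, 2 mM DTT); 60 min 37 °C; stop with EDTA + Eu anti-phospho-Topo IIα Thr1342 Ab; TR-FRET ex 320/340, em 665 nm. 4-param pIC50 → pKi (Cheng-Prusoff).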

SMILES	Ki [2] [nM]	IC50 [1] [nM]
Cc1cccc(-c2[nH]ncc2-c2ccc3ncc(C(=O)OCC4CNC4)cc3c2)n1 [Compound 790, azetidin-3-ylmethyl 6-(5-(6-methylpyridin-2-yl)-1H-pyrazol-4-yl)quinoline-3-carboxylate]	0.0398 to 0.316	25.1 to 158
Cc1cccc(-c2[nH]cnc2-c2ccc3ncc(-c4cnc(C(=O)OC5CNC5)nc4)cc3c2)n1 [Compound 1112, azetidin-3-yl 5-[6-[5-(6-methyl-2-pyridyl)-1H-imidazol-4-yl]-3-quinolyl]pyrimidine-2-carboxylate]	0.398 to 3.16	1580 to 10000
CNCCn1cc(-c2cnc3ccc(-c4nc[nH]c4-c4cccc(C)n4)cc3c2)cn1 [Compound 17, N-methyl-2-(4-(6-(5-(6-methylpyridin-2-yl)-1H-imidazol-4-yl)quinolin-3-yl)-1H-pyrazol-1-yl)ethan-1-amine]	< 0.0316	25.1 to 158
Cc1cccc(-c2[nH]cnc2-c2ccc3ncc(Nc4nc(CN5CCNCC5)cs4)cc3c2)n1 [Compound 164, N-[6-[5-(6-methyl-2-pyridyl)-1H-imidazol-4-yl]-3-quinolyl]-4-(piperazin-1-ylmethyl)thiazol-2-amine]	0.0398 to 0.316	200 to 1260
Cc1nc(-c2nc3ccccn3c2-c2ccc3ncc(-c4nc5n(n4)CCNC5)cc3n2)ccc1F [Compound 447, 2-[2-(5-fluoro-6-methyl-2-pyridyl)imidazo[1,2-a]pyridin-3-yl]-7-(5,6,7,8-tetrahydro-[1,2,4]triazolo[1,5-a]pyrazin-2-yl)-1,5-naphthyridine]	0.0398 to 0.316	25.1 to 158
Cc1cccc(-c2[nH]cnc2-c2ccc3ncc(NCCN4CCC(C(=O)O)CC4)cc3c2)n1 [Compound 670, 1-[2-[[6-[5-(6-methyl-2-pyridyl)-1H-imidazol-4-yl]-3-quinolyl]amino]ethyl]piperidine-4-carboxylic acid]	0.0398 to 0.316	200 to 1260
Cc1cccc(-c2[nH]cnc2-c2ccc3ncc(-c4ccc(C(=O)O[C@@H]5CCNC5)cn4)cc3c2)n1 [Compound 1111, [(3R)-pyrrolidin-3-yl] 6-[6-[5-(6-methyl-2-pyridyl)-1H-imidazol-4-yl]-3-quinolyl]pyridine-3-carboxylate]	< 0.0316	25.1 to 158
Cc1cccc(-c2[nH]cnc2-c2ccc3ncc(C(=O)OCCCN4CC5(CCNCC5)C4)cc3c2)n1 [Compound 903, 3-(2,7-diazaspiro[3.5]nonan-2-yl)propyl 6-(5-(6-methylpyridin-2-yl)-1H-imidazol-4-yl)quinoline-3-carboxylate]	0.0398 to 0.316	200 to 1260
Cc1cccc(-c2[nH]cnc2-c2ccc3ncc(N4CCNC(CC(=O)OC5CCNCC5)C4)cc3c2)n1 (centres unmarked) [Compound 689, 4-piperidyl 2-[4-[6-[5-(6-methyl-2-pyridyl)-1H-imidazol-4-yl]-3-quinolyl]piperazin-2-yl]acetate]	0.398 to 3.16	200 to 1260
CNCCn1cc(-c2cnc3ccc(-c4c(-c5cccc(C)n5)[nH]c5cccnc45)nc3c2)cn1 [Compound 165, N-methyl-2-[4-[6-[2-(6-methyl-2-pyridyl)-1H-pyrrolo[3,2-b]pyridin-3-yl]-1,5-naphthyridin-3-yl]pyrazol-1-yl]ethanamine]	0.0398 to 0.316	200 to 1260
Cc1cccc(-c2[nH]cnc2-c2ccc3ncc(-c4cc(C(=O)O)ccn4)cc3c2)n1 [Compound 1137, 2-[6-[5-(6-methyl-2-pyridyl)-1H-imidazol-4-yl]-3-quinolyl]pyridine-4-carboxylic acid]	0.0398 to 0.316	1580 to 10000
COc1nc(-c2ccc3ncc(Br)cc3c2)c(-c2cccc(C)n2)[nH]1 [Compound 1202, 3-bromo-6-[2-methoxy-5-(6-methyl-2-pyridyl)-1H-imidazol-4-yl]quinoline]	0.398 to 3.16	25.1 to 158
Cc1cccc(-c2[nH]cnc2-c2ccc3ncc(C4=CC[C@H](NC(=O)C5CCNCC5)CC4)cc3c2)n1 [Compound 370, N-[(1R)-4-[6-[5-(6-methyl-2-pyridyl)-1H-imidazol-4-yl]-3-quinolyl]cyclohex-3-en-1-yl]piperidine-4-carboxamide]	0.0398 to 0.316	1580 to 10000

Further lines, with some results ahead:

Ki [2] [nM]	SMILES	IC50 [1] [nM]
0.0398 to 0.316	COc1n[nH]c(-c2cccc(C)n2)c1-c1ccc2ncc(-c3cccnc3)cc2n1 [Compound 105, 2-(5-methoxy-3-(6-methylpyridin-2-yl)-1H-pyrazol-4-yl)-7-(pyridin-3-yl)-1,5-naphthyridine]	25.1 to 158
0.0398 to 0.316	CNC(=O)c1cnc2ccc(-c3cn[nH]c3-c3cccc(C)n3)nc2c1 [Compound 675, N-methyl-6-[5-(6-methyl-2-pyridyl)-lH-pyrazol-4-yl]-1,5-naphthyridine-3-carboxamide]	25.1 to 158
0.0398 to 0.316	Cc1cccc(-c2n[nH]cc2-c2ccc3nccc(CNCCN4CCN(C(C)C)CC4)c3n2)n1 [Compound 820, 2-(4-isopropylpiperazin-1-yl)-N-[[6-[3-(6-methyl-2-pyridyl)-1H-pyrazol-4-yl]-1,5-naphthyridin-4-yl]methyl]ethanamine]	25.1 to 158
0.0398 to 0.316	Cc1cccc(-c2n[nH]cc2-c2ccc3ncc(-c4nc(C(N)=O)co4)cc3n2)n1 [Compound 480, 2-[6-[3-(6-methyl-2-pyridyl)-1H-pyrazol-4-yl]-1,5-naphthyridin-3-yl]oxazole-4-carboxamide]	25.1 to 158
0.0398 to 0.316	COC(=O)c1cnc2ccc(-c3cn[nH]c3-c3cccc(C)n3)nc2c1 [Compound 53, methyl 6-[5-(6-methyl-2-pyridyl)-1H-pyrazol-4-yl]-1,5-naphthyridine-3-carboxylate]	25.1 to 158
3.98 to 31.6	Cc1cccc(-c2n[nH]cc2-c2ccc3ncc(OCC(=O)N4CCOCC4)cc3n2)n1 [Compound 486, 2-[[6-[3-(6-methyl-2-pyridyl)-1H-pyrazol-4-yl]-1,5-naphthyridin-3-yl]oxy]-1-morpholino-ethanone]	1580 to 10000
0.0398 to 0.316	Cc1cccc(-c2[nH]cnc2-c2ccc3ncc(N4CCCNCC4)cc3n2)n1 [Compound 307, 7-(1,4-diazepan-1-yl)-2-(5-(6-methylpyridin-2-yl)-1H imidazol-4-yl)-1,5-naphthyridine]	25.1 to 158
0.0398 to 0.316	Cc1cccc(-c2nc3ccccn3c2-c2ccc3ncc(-c4cnc5n4CCNC5)cc3n2)n1 [Compound 524, 2-[2-(6-methyl-2-pyridyl)imidazo[1,2-a]pyridin-3-yl]-7-(5,6,7,8-tetrahydroimidazo[1,2-a]pyrazin-3-yl)-1,5-naphthyridine]	25.1 to 158
3.98 to 31.6	Cc1cccc(-c2n[nH]cc2-c2ccc3nc(C4CCCN4)c(-c4cn[nH]c4)cc3c2)n1 (centres unmarked) [Compound 291, 6-[3-(6-methyl-2-pyridyl)-1H-pyrazol-4-yl]-3-(1H-pyrazol-4-yl)-2-pyrrolidin-2-yl-quinoline]	1580 to 10000
0.0398 to 0.316	Cc1cccc(-c2n[nH]cc2-c2ccc3ncc(N4CCC5NCCC5C4)cc3n2)n1 (centres unmarked) [Compound 151, 7-(1,2,3,3a,4,6,7,7a-octahydropyrrolo[3,2-c]pyridin-5-yl)-2-[3-(6-methyl-2-pyridyl)-1H-pyrazol-4-yl]-1,5-naphthyridine]	25.1 to 158
< 0.0316	CNCCn1cc(-c2cnc3ccc(-c4c[nH]nc4-c4cccc(C)n4)nc3c2OC)cn1 [Compound 127, 2-[4-[4-methoxy-6-[3-(6-methyl-2-pyridyl)-1H-pyrazol-4-yl]-1,5-naphthyridin-3-yl]pyrazol-1-yl]-N-methyl-ethanamine]	25.1 to 158
0.398 to 3.16	Cc1cccc(-c2n[nH]cc2-c2ccc3ncc(-c4c(C)nn5c4NCCC5)cc3n2)n1 [Compound 212, 2-[3-(6-methyl-2-pyridyl)-1H-pyrazol-4-yl]-7-(2-methyl-4,5,6,7-tetrahydropyrazolo[1,5-a]pyrimidin-3-yl)-1,5-naphthyridine]	25.1 to 158
< 0.0316	CCc1cccc(-c2n[nH]cc2-c2ccc3ncc(N4CCC(N(C)C)CC4)cc3n2)n1 [Compound 348, 1-[6-[3-(6-ethyl-2-pyridyl)-1H-pyrazol-4-yl]-1,5-naphthyridin-3-yl]-N,N-dimethyl-piperidin-4-amine]	25.1 to 158
0.0398 to 0.316	Cc1cccc(-c2n[nH]cc2-c2ccc3ncc(C(=O)NCCN4CCN(C(C)C)CC4)cc3n2)n1 [Compound 378, N-[2-(4-isopropylpiperazin-1-yl)ethyl]-6-[3-(6-methyl-2-pyridyl)-1H-pyrazol-4-yl]-1,5-naphthyridine-3-carboxamide]	25.1 to 158
0.398 to 3.16	Cc1cccc(-c2n[nH]cc2-c2ccc3ncc(CCC(=O)N4CCN(C(C)C)CC4)cc3n2)n1 [Compound 372, 1-(4-isopropylpiperazin-1-yl)-3-[6-[3-(6-methyl-2-pyridyl)-1H-pyrazol-4-yl]-1,5-naphthyridin-3-yl]propan-1-one]	25.1 to 158
